Test results from patent publication US20050197350A1, “Novel quinoline, tetrahydroquinazoline, and pyrimidine derivatives and methods of treatment related to the use thereof” (TAISHO PHARMACEUTICAL CO., LTD., priority 2003, published 2005).

system: MCH receptors; assay: MCH receptor activity class (method not given); settings: class 1-3 by percent of control at 10^-7 M or IC50

How did the class turn out when `CN(C)c1ccnc(N[C@H]2CC[C@@H](CNC(=O)Cc3ccc(F)cc3)CC2)n1` [compound 413] was run?
Its class is 3 (Class 3 The value of percent of control at 10^−7 M was more than 60% or the value of IC50 was more than 200 nM.).

`COc1ccc(CC(=O)NC[C@H]2CC[C@@H](Nc3nccc(N(C)C)n3)CC2)cc1` [compound 414, N-[(cis-4-{[4-(dimethylamino)pyrimidin-2-yl]amino}cyclohexyl)methyl]-2-(4-methoxyphenyl)acetamide] was tested. Which class did it give?
Its class is 2 (Class 2: The value of percent of control at 10^−7 M was from 40% to 60% or the value of IC′50 was from 50 nM to 200 nM.).

Which class does the source give for `Cc1cc(C(=O)NC[C@H]2CC[C@@H](Nc3nccc(N(C)C)n3)CC2)c(C(F)(F)F)o1` [compound 415] here?
The class was 3 (Class 3 The value of percent of control at 10^−7 M was more than 60% or the value of IC50 was more than 200 nM.).

Which class does the source give for `Cc1cc(C(=O)NC[C@H]2CC[C@@H](Nc3nccc(N(C)C)n3)CC2)c(C)o1` [compound 416] here?
Its class is 3 (Class 3 The value of percent of control at 10^−7 M was more than 60% or the value of IC50 was more than 200 nM.).

How did the class turn out when `CCOc1ccccc1C(=O)NC[C@H]1CC[C@@H](Nc2nccc(N(C)C)n2)CC1` [compound 417] was run?
Its class is 3 (Class 3 The value of percent of control at 10^−7 M was more than 60% or the value of IC50 was more than 200 nM.).

How did the class turn out when `CN(C)c1ccnc(N[C@H]2CC[C@@H](CNC(=O)c3ccc(F)c(Cl)c3)CC2)n1` [compound 418] was run?
The class was 3 (Class 3 The value of percent of control at 10^−7 M was more than 60% or the value of IC50 was more than 200 nM.).

How did the class turn out when `Cc1ccc(C(=O)NC[C@H]2CC[C@@H](Nc3nccc(N(C)C)n3)CC2)cc1F` [compound 419] was run?
The class was 3 (Class 3 The value of percent of control at 10^−7 M was more than 60% or the value of IC50 was more than 200 nM.).

Which class does the source give for `CN(C)c1ccnc(N[C@H]2CC[C@@H](CNC(=O)CC3CCCC3)CC2)n1` [compound 420] here?
The class was 3 (Class 3 The value of percent of control at 10^−7 M was more than 60% or the value of IC50 was more than 200 nM.).

For `COc1cc(OC)cc(C(=O)NC[C@H]2CC[C@@H](Nc3nccc(N(C)C)n3)CC2)c1` [compound 421], which class is on record?
Its class is 3 (Class 3 The value of percent of control at 10^−7 M was more than 60% or the value of IC50 was more than 200 nM.).

How did the class turn out when `CN(C)c1ccnc(N[C@H]2CC[C@@H](CNC(=O)c3ccc(C#N)cc3)CC2)n1` [compound 422] was run?
Its class is 3 (Class 3 The value of percent of control at 10^−7 M was more than 60% or the value of IC50 was more than 200 nM.).

`CN(C)c1ccnc(N[C@H]2CC[C@@H](CNC(=O)c3cc(C(F)(F)F)cc(C(F)(F)F)c3)CC2)n1` [compound 423, N-[(cis-4-{[4-(dimethylamino)pyrimidin-2-yl]amino}cyclohexyl)methyl]-3,5-bis(trifluoromethyl)benzamide] was tested. Which class did it give?
The class was 2 (Class 2: The value of percent of control at 10^−7 M was from 40% to 60% or the value of IC′50 was from 50 nM to 200 nM.).

Which class does the source give for `CN(C)c1ccnc(N[C@H]2CC[C@@H](CNC(=O)/C=C/c3ccc([N+](=O)[O-])cc3)CC2)n1` [compound 424] here?
Its class is 1 (Class 1: The value of percent of control at 10^−7 M was less than 40% or the value of IC50 was less than 50 nM.).

For `CN(C)c1ccnc(N[C@H]2CC[C@@H](CNC(=O)Cc3ccccc3Br)CC2)n1` [compound 425], which class is on record?
The class was 2 (Class 2: The value of percent of control at 10^−7 M was from 40% to 60% or the value of IC′50 was from 50 nM to 200 nM.).

Which class does the source give for `Cc1cc(C(=O)NC[C@H]2CC[C@@H](Nc3nccc(N(C)C)n3)CC2)ccc1F` [compound 426] here?
Its class is 3 (Class 3 The value of percent of control at 10^−7 M was more than 60% or the value of IC50 was more than 200 nM.).

For `CN(C)c1ccnc(N[C@H]2CC[C@@H](CNC(=O)c3ccccc3SC(F)F)CC2)n1` [compound 427], which class is on record?
Its class is 3 (Class 3 The value of percent of control at 10^−7 M was more than 60% or the value of IC50 was more than 200 nM.).

How did the class turn out when `CN(C)c1ccnc(N[C@H]2CC[C@@H](CNC(=O)c3cc(Cl)sc3Cl)CC2)n1` [compound 428] was run?
The class was 3 (Class 3 The value of percent of control at 10^−7 M was more than 60% or the value of IC50 was more than 200 nM.).

`CCCSc1ncccc1C(=O)NC[C@H]1CC[C@@H](Nc2nccc(N(C)C)n2)CC1` [compound 429] was tested. Which class did it give?
Its class is 2 (Class 2: The value of percent of control at 10^−7 M was from 40% to 60% or the value of IC′50 was from 50 nM to 200 nM.).

How did the class turn out when `CN(C)c1ccnc(N[C@H]2CC[C@@H](CNC(=O)c3cc(C(C)(C)C)nn3Cc3ccccc3)CC2)n1` [compound 430] was run?
The class was 3 (Class 3 The value of percent of control at 10^−7 M was more than 60% or the value of IC50 was more than 200 nM.).

With `CN(C)c1ccnc(N[C@H]2CC[C@@H](CNC(=O)c3cc(C(C)(C)C)nn3C)CC2)n1` [compound 431] as the molecule, how does the class read?
Its class is 3 (Class 3 The value of percent of control at 10^−7 M was more than 60% or the value of IC50 was more than 200 nM.).

`C/C(=C\c1ccccc1)C(=O)NC[C@H]1CC[C@@H](Nc2nccc(N(C)C)n2)CC1` [compound 432] was tested. Which class did it give?
The class was 3 (Class 3 The value of percent of control at 10^−7 M was more than 60% or the value of IC50 was more than 200 nM.).

Which class does the source give for `CN(C)c1ccnc(N[C@H]2CC[C@@H](CNC(=O)c3cncc(Br)c3)CC2)n1` [compound 433] here?
The class was 3 (Class 3 The value of percent of control at 10^−7 M was more than 60% or the value of IC50 was more than 200 nM.).

Which class does the source give for `CN(C)c1ccnc(N[C@H]2CC[C@@H](CNC(=O)Cc3cccc4ccccc34)CC2)n1` [compound 434] here?
The class was 1 (Class 1: The value of percent of control at 10^−7 M was less than 40% or the value of IC50 was less than 50 nM.).

Which class does the source give for `Cc1cc(C(=O)NC[C@H]2CC[C@@H](Nc3nccc(N(C)C)n3)CC2)nn1C(C)(C)C` [compound 435, 1-tert-butyl-N-[(cis-4-{[4-(dimethylamino)pyriniidin-2-yl]amino}cyclohexyl)methyl]-5-methyl-1H-pyrazole-3-carboxamide] here?
Its class is 3 (Class 3 The value of percent of control at 10^−7 M was more than 60% or the value of IC50 was more than 200 nM.).

Which class does the source give for `CN(C)c1ccnc(N[C@H]2CC[C@@H](CNC(=O)c3csc4ccccc34)CC2)n1` [compound 436] here?
The class was 3 (Class 3 The value of percent of control at 10^−7 M was more than 60% or the value of IC50 was more than 200 nM.).

How did the class turn out when `CN(C)c1ccnc(N[C@H]2CC[C@@H](CNC(=O)c3ccc(-c4ccccc4)cc3)CC2)n1` [compound 437] was run?
Its class is 3 (Class 3 The value of percent of control at 10^−7 M was more than 60% or the value of IC50 was more than 200 nM.).

With `CN(C)c1ccnc(N[C@H]2CC[C@@H](CNC(=O)c3ccccc3Br)CC2)n1` [compound 438] as the molecule, how does the class read?
Its class is 3 (Class 3 The value of percent of control at 10^−7 M was more than 60% or the value of IC50 was more than 200 nM.).

Which class does the source give for `CN(C)c1ccnc(N[C@H]2CC[C@@H](CNC(=O)c3c(Cl)cccc3Cl)CC2)n1` [compound 439] here?
The class was 3 (Class 3 The value of percent of control at 10^−7 M was more than 60% or the value of IC50 was more than 200 nM.).

With `CN(C)c1ccnc(N[C@H]2CC[C@@H](CNC(=O)c3ccccc3I)CC2)n1` [compound 440] as the molecule, how does the class read?
The class was 3 (Class 3 The value of percent of control at 10^−7 M was more than 60% or the value of IC50 was more than 200 nM.).

How did the class turn out when `Cc1ccccc1C(=O)NC[C@H]1CC[C@@H](Nc2nccc(N(C)C)n2)CC1` [compound 441] was run?
Its class is 3 (Class 3 The value of percent of control at 10^−7 M was more than 60% or the value of IC50 was more than 200 nM.).

Which class does the source give for `CN(C)c1ccnc(N[C@H]2CC[C@@H](CNC(=O)c3cccc(Cl)c3Cl)CC2)n1` [compound 442] here?
Its class is 3 (Class 3 The value of percent of control at 10^−7 M was more than 60% or the value of IC50 was more than 200 nM.).

With `CN(C)c1ccnc(N[C@H]2CC[C@@H](CNC(=O)c3cc(F)ccc3Cl)CC2)n1` [compound 443] as the molecule, how does the class read?
Its class is 3 (Class 3 The value of percent of control at 10^−7 M was more than 60% or the value of IC50 was more than 200 nM.).

How did the class turn out when `CN(C)c1ccnc(N[C@H]2CC[C@@H](CNC(=O)c3cccc4c3-c3ccccc3C4=O)CC2)n1` [compound 444, N-[(cis-4-{[4-(dimethylamino)pyrimidin-2-yl]amino}cyclohexyl)methyl]-9-oxo-9H-fluorene-4-carboxamide] was run?
Its class is 2 (Class 2: The value of percent of control at 10^−7 M was from 40% to 60% or the value of IC′50 was from 50 nM to 200 nM.).

With `CN(C)c1ccnc(N[C@H]2CC[C@@H](CNC(=O)c3c(F)ccc(F)c3F)CC2)n1` [compound 445] as the molecule, how does the class read?
Its class is 3 (Class 3 The value of percent of control at 10^−7 M was more than 60% or the value of IC50 was more than 200 nM.).

Which class does the source give for `CN(C)c1ccnc(N[C@H]2CC[C@@H](CNC(=O)c3cccc(F)c3F)CC2)n1` [compound 446] here?
Its class is 3 (Class 3 The value of percent of control at 10^−7 M was more than 60% or the value of IC50 was more than 200 nM.).

Which class does the source give for `CN(C)c1ccnc(N[C@H]2CC[C@@H](CNC(=O)c3c(F)cccc3F)CC2)n1` [compound 447] here?
Its class is 3 (Class 3 The value of percent of control at 10^−7 M was more than 60% or the value of IC50 was more than 200 nM.).

With `CN(C)c1ccnc(N[C@H]2CC[C@@H](CNC(=O)c3c(F)cccc3C(F)(F)F)CC2)n1` [compound 448] as the molecule, how does the class read?
The class was 3 (Class 3 The value of percent of control at 10^−7 M was more than 60% or the value of IC50 was more than 200 nM.).

How did the class turn out when `Cc1cc(C)c(C(=O)NC[C@H]2CC[C@@H](Nc3nccc(N(C)C)n3)CC2)c(C)c1` [compound 449, N-[(cis-4-{[4-(dimethylamino)pyrimidin-2-yl]amino}cyclohexyl)methyl]-2,4,6-trimethylbenzamide] was run?
The class was 2 (Class 2: The value of percent of control at 10^−7 M was from 40% to 60% or the value of IC′50 was from 50 nM to 200 nM.).

same assay, conditions: class by percent of control at 10^-7 M or IC50

`CN(C)c1ccnc(N[C@H]2CC[C@@H](CNC(=O)CSc3ccccc3)CC2)n1` [compound 408] was tested. Which class did it give?
Its class is 3 (Class 3 The value of percent of control at 10^−7 M was more than 60% or the value of IC50 was more than 200 nM.).

Which class does the source give for `CN(C)c1ccnc(N[C@H]2CC[C@@H](CNC(=O)c3cccc(C(F)(F)F)c3F)CC2)n1` [compound 409] here?
Its class is 3 (Class 3 The value of percent of control at 10^−7 M was more than 60% or the value of IC50 was more than 200 nM.).

For `CN(C)c1ccnc(N[C@H]2CC[C@@H](CNC(=O)c3cc(C(F)(F)F)ccc3F)CC2)n1` [compound 410], which class is on record?
Its class is 3 (Class 3 The value of percent of control at 10^−7 M was more than 60% or the value of IC50 was more than 200 nM.).

How did the class turn out when `COc1cccc(CC(=O)NC[C@H]2CC[C@@H](Nc3nccc(N(C)C)n3)CC2)c1` [compound 412] was run?
The class was 2 (Class 2: The value of percent of control at 10^−7 M was from 40% to 60% or the value of IC′50 was from 50 nM to 200 nM.).
